Assay results from article PMC11066006, “Discovery of active mouse, plant and fungal cytochrome P450s in endogenous proteomes and upon expression in planta” (Scientific Reports, 2024).

Key:
Assay type in all cases: biochemical
ZmCYP81A9-GFP [1] = target: T1, ZmCYP81A9-GFP (Zea mays, UniProt A0A804P7U7); assay: activity-based labeling, click chemistry, in-gel fluorescence; conditions: 10 μM probe, 1 mM NADPH, 1.5 h, leaf microsomes; covalent
T1 construct: C-terminal GFP fusion, codon-optimised, agroinfiltrated Nicotiana benthamiana leaf microsomes
T1 sequence (A0A804P7U7 with tags, fused parts or gaps): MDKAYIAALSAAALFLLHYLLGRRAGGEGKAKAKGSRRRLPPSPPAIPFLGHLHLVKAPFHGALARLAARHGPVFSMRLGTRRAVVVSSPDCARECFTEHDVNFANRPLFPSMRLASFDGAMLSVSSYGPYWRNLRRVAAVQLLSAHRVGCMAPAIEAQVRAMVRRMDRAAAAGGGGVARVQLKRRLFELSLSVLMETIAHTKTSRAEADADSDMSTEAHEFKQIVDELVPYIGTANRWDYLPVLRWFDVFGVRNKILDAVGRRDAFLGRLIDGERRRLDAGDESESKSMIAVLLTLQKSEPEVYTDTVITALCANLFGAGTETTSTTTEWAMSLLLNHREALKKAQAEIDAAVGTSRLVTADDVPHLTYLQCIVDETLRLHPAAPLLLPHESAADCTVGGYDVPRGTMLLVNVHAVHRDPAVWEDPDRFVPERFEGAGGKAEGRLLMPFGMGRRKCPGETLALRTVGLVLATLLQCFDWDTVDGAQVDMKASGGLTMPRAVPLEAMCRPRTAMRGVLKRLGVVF

MmCyp1a2-GFP = target: T2, MmCyp1a2-GFP (Mus musculus, UniProt P00186); assay: as above; conditions: 10 μM probe, 1 mM NADPH, 1.5 h, leaf microsomes; covalent
T2 construct: gene Cyp1a2; C-terminal GFP fusion, 82 kDa, codon-optimised, agroinfiltrated Nicotiana benthamiana leaf microsomes
T2 sequence (P00186 2-513): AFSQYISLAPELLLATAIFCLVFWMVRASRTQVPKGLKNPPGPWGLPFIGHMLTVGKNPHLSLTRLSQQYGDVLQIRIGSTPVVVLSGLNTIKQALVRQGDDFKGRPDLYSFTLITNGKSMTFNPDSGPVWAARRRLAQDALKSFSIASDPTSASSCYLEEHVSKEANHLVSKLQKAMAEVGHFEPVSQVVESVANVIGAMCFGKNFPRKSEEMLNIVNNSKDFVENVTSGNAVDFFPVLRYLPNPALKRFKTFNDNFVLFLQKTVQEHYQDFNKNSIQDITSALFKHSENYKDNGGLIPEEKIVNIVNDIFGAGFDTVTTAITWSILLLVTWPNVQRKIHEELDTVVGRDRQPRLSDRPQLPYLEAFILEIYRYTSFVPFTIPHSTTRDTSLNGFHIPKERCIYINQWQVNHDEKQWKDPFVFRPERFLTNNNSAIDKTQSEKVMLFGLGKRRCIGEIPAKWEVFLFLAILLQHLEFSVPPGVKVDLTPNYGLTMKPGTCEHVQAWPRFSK

ZmCYP81A9-GFP [2] = target: T1, ZmCYP81A9-GFP; assay: activity-based labeling, streptavidin pull-down LC-MS/MS; conditions: 10 μM probe, 1 mM NADPH, 1.5 h, leaf microsomes; covalent
ZtCYP539A6 = target: T3, ZtCYP539A6 (Zymoseptoria tritici, UniProt F9XDL6); assay: as above; conditions: 30 μM probe, 1 mM NADPH, 1 h, native Z. tritici microsomes; covalent
T3 construct: gene CYP-30; native, microsomes of Z. tritici cell cultures, identified by MS; also expressed as C-terminal GFP fusion in N. benthamiana
T3 sequence (F9XDL6 1-542): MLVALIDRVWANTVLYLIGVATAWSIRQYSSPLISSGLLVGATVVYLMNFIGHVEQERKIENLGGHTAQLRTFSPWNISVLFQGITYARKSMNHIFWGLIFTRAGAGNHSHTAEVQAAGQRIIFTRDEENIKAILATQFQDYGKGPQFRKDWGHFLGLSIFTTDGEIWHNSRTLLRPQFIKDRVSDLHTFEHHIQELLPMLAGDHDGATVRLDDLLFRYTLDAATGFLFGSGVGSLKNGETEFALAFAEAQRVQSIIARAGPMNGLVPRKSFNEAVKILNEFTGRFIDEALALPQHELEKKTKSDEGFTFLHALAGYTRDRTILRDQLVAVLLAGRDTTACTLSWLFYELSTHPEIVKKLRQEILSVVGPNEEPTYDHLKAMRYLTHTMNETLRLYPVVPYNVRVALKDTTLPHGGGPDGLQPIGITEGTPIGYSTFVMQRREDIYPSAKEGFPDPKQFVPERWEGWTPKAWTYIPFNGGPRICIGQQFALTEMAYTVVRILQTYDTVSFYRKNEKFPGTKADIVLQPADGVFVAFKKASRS

ZtCYP52R1 = target: T4, ZtCYP52R1 (Zymoseptoria tritici, UniProt F9XML6); assay: as above; conditions: 30 μM probe, 1 mM NADPH, 1 h, native Z. tritici microsomes; covalent
T4 construct: gene CYP-29; native, microsomes of Z. tritici cell cultures, identified by MS; also expressed as C-terminal GFP fusion in N. benthamiana
T4 sequence (F9XML6 1-521): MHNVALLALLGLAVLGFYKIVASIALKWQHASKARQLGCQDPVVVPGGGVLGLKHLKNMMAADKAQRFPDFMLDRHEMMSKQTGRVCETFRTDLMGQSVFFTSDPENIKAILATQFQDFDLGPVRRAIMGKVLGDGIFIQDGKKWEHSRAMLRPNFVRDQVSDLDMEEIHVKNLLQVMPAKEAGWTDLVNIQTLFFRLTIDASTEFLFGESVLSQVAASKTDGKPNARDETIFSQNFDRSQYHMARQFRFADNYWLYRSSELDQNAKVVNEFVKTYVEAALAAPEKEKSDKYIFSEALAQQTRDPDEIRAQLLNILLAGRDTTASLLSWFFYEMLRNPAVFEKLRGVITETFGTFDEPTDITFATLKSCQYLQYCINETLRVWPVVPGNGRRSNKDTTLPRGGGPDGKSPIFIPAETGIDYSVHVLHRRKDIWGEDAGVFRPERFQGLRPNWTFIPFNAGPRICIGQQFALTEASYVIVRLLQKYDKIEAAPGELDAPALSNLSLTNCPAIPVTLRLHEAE

ZmCYP81A9-GFP [3] = target: T1, ZmCYP81A9-GFP; assay: activity-based labeling, in-gel fluorescence; streptavidin pull-down LC-MS/MS; conditions: 10 μM probe, 1 mM NADPH, 1.5 h, leaf microsomes; covalent
ZmCYP81A9 = target: T5, ZmCYP81A9 (Zea mays, UniProt A0A804P7U7); assay: hydroxylation monitored by LC-MS; conditions: yeast microsomes, 200 μM bentazone, 1 mM NADPH, pH 7.5, 28 °C, 2 h
T5 construct: untagged as described; codon-optimised ORF in pYES3, microsomes of Saccharomyces cerevisiae WAT11
T5 sequence (A0A804P7U7 with tags, fused parts or gaps): T1 sequence (A0A804P7U7 with tags, fused parts or gaps)

C#CCCCCNC(=O)c1cc2ccc(C#C)cc2oc1=O [DB086]
activity-based labeling, click chemistry, in-gel fluorescence (ZmCYP81A9-GFP [1]): NADPH-dependent fluorescent signal for DB086 and DB096 | activity-based labeling, click chemistry, in-gel fluorescence (MmCyp1a2-GFP): tested these for labeling with DB086 and DB096

C#CCCCCNC(=O)C1=Cc2ccc(C#C)cc2CC1 [DB088]
activity-based labeling, streptavidin pull-down LC-MS/MS (ZmCYP81A9-GFP [2]): confirming that ZmCYP81A9-GFP is labeled by both DB088 and DB096

C#CCCCCNC(=O)c1ccc(C#C)cc1 [DB096]
activity-based labeling, streptavidin pull-down LC-MS/MS (ZtCYP539A6): amongst the DB096-enriched proteins: ZtCYP52R1, ZtCYP539A6, ZtCYP5078B1 and ZtCYP5080H1 | activity-based labeling, streptavidin pull-down LC-MS/MS (ZtCYP52R1): amongst the DB096-enriched proteins: ZtCYP52R1, ZtCYP539A6, ZtCYP5078B1 and ZtCYP5080H1 | activity-based labeling, in-gel fluorescence; streptavidin pull-down LC-MS/MS (ZmCYP81A9-GFP [3]): NADPH-dependent fluorescent signal for DB086 and DB096 | activity-based labeling, click chemistry, in-gel fluorescence (MmCyp1a2-GFP): tested these for labeling with DB086 and DB096

CC(C)N1C(=O)c2ccccc2NS1(=O)=O [bentazone]
hydroxylation monitored by LC-MS (ZmCYP81A9): used to monitor the conversion of bentazone, leading to hydroxybentazone
